{
  "source": "patent US7708989B2",
  "about": "“Methods of treating vascular diseases characterized by nitric oxide insufficiency” (NitroMed, Inc., priority 1999, dated 2010)",
  "key": {"[1]": {"settings": "cited from earlier work"}, "[2]": {"system": "forearm microvessels", "assay": "Forearm blood flow responses to intra-arterial infusions by venous occlusion plethysmography in white and black hypertensive patients", "type": "in vivo, human", "settings": "intra-arterial infusion"}, "[3]": {"system": "forearm microvessels", "assay": "Forearm blood flow responses by venous occlusion plethysmography in normotensive white and black patients", "type": "in vivo, human", "settings": "46 normotensive white and black patients matched for age and gender", "description": "FIGS. 3A and 3B show forearm blood flow responses to nitroprusside (FIG. 3A) and methacholine (FIG. 3B) that were assessed by venous occlusion plethysmography in 25 white and 21 black patients without hypertension.\nTo investigate the issue of whether NO deficiency is a primary or secondary phenomenon in hypertensive black patients, 46 normotensive white and black patients who were matched for age and gender were compared. […] These findings are consistent with recently published results by other investigators (Lang et al, N EngI J Med, 333:155-160 (1995); Cardillo et al, Hypertension 31:1235-1239 (1998))."}, "[4]": {"system": "forearm microvessels", "assay": "Forearm microvascular vasodilator responses in salt-sensitive versus salt-resistant normotensive black patients", "type": "in vivo, human", "description": "To explore the relation between salt-sensitivity and endothelium-derived NO action in black patients prior to the development of hypertension, the blood pressure response to salt-loading and salt-deprivation using an established inpatient protocol (Weinberger et al, Hypertension, 8:II-127-II-134 (1986)) in a group of normotensive black patients was assessed. Briefly, blood pressure was continuously monitored non-invasively during a salt load (sodium 458 mEq over 24 hours) and during a period of salt depletion (furosemide treatment and sodium intake 10 mEq over 24 hours). Patients were considered to be salt-sensitive if mean blood pressure was at least 10 mm Hg higher during the salt loading period (Weinberger et al, Hypertension, 8:II-127-II-134 (1986))."}, "[5]": {"system": "conduit arteries", "assay": "Conduit vessel function by brachial ultrasound technique (nitroglycerin-mediated dilation)", "type": "in vivo, human", "settings": "for NTG-response (%): mean ± SD", "from_the_text": "The effects of hypertension and race on conduit vessel function were examined using a well-established brachial ultrasound technique (Vita et al, Lanzer & Lipton, Eds., Diagnostics of Vascular Diseases: Principles and Technology. Berlin:Springer-Verlag, pp.249-259 (1996)) in 370 patients (178 black, 192 white). […] Further, systolic blood pressure was inversely correlated with flow-mediated dilation (r=−0.30, P<0.001) and nitroglycerin-mediated dilation (r=−0.33, P<0.001). Diastolic pressure correlated to a similar extent with vascular function. By multiple linear regression analysis, vessel size and systolic blood pressure were the only independent predictors of flow-mediated dilation in this sizable group of patients."}},
  "note": "Entries after “also recorded” stand apart in the source; their conditions may differ.",
  "data": [
    {"smiles": "O=[N+]([O-])O[C@H]1CO[C@H]2[C@@H]1OC[C@H]2O[N+](=O)[O-]", "note": "[isosorbide dinitrate, 1,4,3,6-dianhydro-D-glucitol-2,5-dinitrate]", "values": [
      {"measurement": "solubility in organic solvents", "setting": "[1]; organic solvents such as ethanol, ether and chloroform", "value": "freely soluble"},
      {"measurement": "solubility in water", "setting": "[1]; water", "value": "sparingly soluble"}
    ]},
    {"smiles": "CC(=O)OC(C)C[N+](C)(C)C", "note": "(stereo not shown) [methacholine]", "values": [
      {"measurement": "vasodilator (forearm blood flow) response, black compared to white hypertensive patients", "setting": "[2]; 36 white and black hypertensive patients", "value": "impaired; also recorded: markedly worse"},
      {"measurement": "dilator response, hypertensive patients compared to age-matched normotensive controls", "setting": "[2]; hypertensive versus normotensive controls", "value": "significantly reduced"},
      {"measurement": "vasodilator response, black compared to white normotensive patients", "setting": "[3]", "value": "no racial difference; also recorded: not significantly different"},
      {"measurement": "vasodilator response, salt-sensitive compared to salt-resistant patients", "setting": "[4]; normotensive black patients, repeated measures ANOVA", "value": "trends for impaired vasodilator responses"}
    ]},
    {"smiles": "O=[N+]([O-])OCC(CO[N+](=O)[O-])O[N+](=O)[O-]", "note": "[nitroglycerin]", "values": [
      {"measurement": "nitroglycerin-mediated dilation according to race", "setting": "[5]; 370 patients (178 black, 192 white)", "value": "no significant differences"},
      {"measurement": "NTG-response (%)", "setting": "[5]; Black Patients, Hypertensive, p < 0.001 compared to race matched normotensives", "value": "16.4 ± 7.1", "unit": "%"},
      {"measurement": "NTG-response (%)", "setting": "[5]; Black Patients, Normotensive", "value": "20.6 ± 8.4", "unit": "%"},
      {"measurement": "NTG-response (%)", "setting": "[5]; White Patients, Hypertensive, p < 0.001 compared to race matched normotensives", "value": "14.6 ± 6.2", "unit": "%"},
      {"measurement": "NTG-response (%)", "setting": "[5]; White Patients, Normotensive", "value": "18.1 ± 8.1", "unit": "%"},
      {"measurement": "effect of hypertension on nitroglycerin-mediated dilation", "setting": "[5]; hypertensive versus normotensive patients", "value": "highly significant reduction"}
    ]},
    {"smiles": "COc1ccc(CCN(C)CCCC(C#N)(c2ccc(OC)c(OC)c2)C(C)C)cc1OC", "note": "(stereo not shown) [verapamil]", "values": [
      {"measurement": "vasodilator response, salt-sensitive compared to salt-resistant patients", "setting": "[4]; human, in vivo", "value": "equivalent"}
    ]}
  ]
}
